Reference: US6576620B2, “Method of identifying partial adenosine A1 receptor agonists” (CV Therapeutics, Inc., priority 1999, dated 2003)

System: Adenosine A1 receptor
Assay: A1-agonist stimulated [35S]GTPγS binding to G proteins
Format: biochemical
Details: normalized to the full agonist CPA
Protocol: At the end of the incubation, each suspension was filtered and the retained radioactivity determined as described above.

[1] = Table 1, compounds of Example 2
[2] = Table 3, compounds of Example 4

Row | Compound | GTPγS [1] [%] | other results
1 | 2-{6-[((3R)oxolan-3-yl)amino]purin-9-yl}(4S,2R,3R,5R)-5-{[cyclopentyloxythioxomethyl)amino]methyl}oxolane-3,4-diol [Compound 72 of Example 2] | 93 | 
2 | CCNc1nc2c(N[C@@H]3CCOC3)ncnc2n1[C@@H]1O[C@H](CO)[C@@H](O)[C@H]1O [Compound 5 of Example 3, 2-{6-[((3R)oxolan-3-yl)amino]-8-(ethylamino)purin-9-yl}(4S,2R,3R,5R)-5-(hydroxymethyl)oxolane-3,4-diol] |  | GTPγS (Table 2, compounds of Example 3): 89%
3 | Cc1ccc(SC[C@H]2O[C@@H](n3cnc4c(N[C@@H]5CCOC5)ncnc43)[C@H](O)[C@@H]2O)cc1 [Compound 15 of Example 4, 2-{6-[((3R)oxolan-3-yl)amino]purin-9-yl}(4S,5S,2R,3R)-5-[(4-methylphenylthio)methyl]oxolane-3,4-diol] |  | GTPγS [2]: 48%
4 | O[C@@H]1[C@H](O)[C@@H](CSc2ccc(C(F)(F)F)cc2)O[C@H]1n1cnc2c(N[C@@H]3CCOC3)ncnc21 [Compound 16 of Example 4, 2-{6-[((3R)oxolan-3-yl)amino]purin-9-yl}(4S,5S,2R,3R)-5-[(4-(trifluoromethyl)phenylthio)methyl]oxolane-3,4-diol] |  | GTPγS [2]: 31%
5 | COc1ccccc1SC[C@H]1O[C@@H](n2cnc3c(N[C@@H]4CCOC4)ncnc32)[C@H](O)[C@@H]1O [Compound 17 of Example 4, 2-{6-[((3R)oxolan-3-yl)amino]purin-9-yl}(4S,5S,2R,3R)-5-[(2-Methoxyphenylthio)methyl]oxolane-3,4-diol] |  | GTPγS [2]: 52%
6 | CC(C)NC(=O)OC[C@H]1O[C@@H](n2cnc3c(N[C@@H]4CCOC4)ncnc32)[C@H](O)[C@@H]1O [Compound 32 of Example 2, {(5-{6-[((3R)oxolan-3-yl)amino]purin-9-yl}(3S,2R,4R,5R)-3,4-dihydroxyoxolan-2-yl)methoxy]-N-(methylethyl)carboxamide] | 91 | 
7 | COC(=O)C1CCCC1NC(=O)OC[C@H]1O[C@@H](n2cnc3c(N[C@@H]4CCOC4)ncnc32)[C@H](O)[C@@H]1O (stereo partly drawn) [Compound 34 of Example 2] | 17 | 
8 | CCOC(=O)[C@H]1C2C=CC(C2)[C@H]1NC(=O)OC[C@H]1O[C@@H](n2cnc3c(N[C@@H]4CCOC4)ncnc32)[C@H](O)[C@@H]1O (stereo partly drawn) [Compound 35 of Example 2] | 52 | 
9 | CCOC(=O)[C@H]1C2CCC(C2)[C@H]1NC(=O)OC[C@H]1O[C@@H](n2cnc3c(N[C@@H]4CCOC4)ncnc32)[C@H](O)[C@@H]1O (stereo partly drawn) [Compound 36 of Example 2] | 41 | 
10 | O=C(N[C@@H]1CCC[C@H]1OCc1ccccc1)OC[C@H]1O[C@@H](n2cnc3c(N[C@@H]4CCOC4)ncnc32)[C@H](O)[C@@H]1O [Compound 37 of Example 2, {(5-{6 [((3R)oxolan-3-yl)amino]purin-9-yl}(3S,2R,4R,5R)-3,4-dihydroxyoxolan-2-yl)methoxy]-N-[(1R,2R)-2-(phenylmethoxy)cyclopentyl]carboxamide] | 30 | 
11 | O=C(N[C@H]1CCC[C@@H]1OCc1ccccc1)OC[C@H]1O[C@@H](n2cnc3c(N[C@@H]4CCOC4)ncnc32)[C@H](O)[C@@H]1O [Compound 38 of Example 2, {(5-{6[((3R)oxolan-3-yl)amino]purin-9-yl}(3S,2R,4R,5R)-3,4-dihydroxyoxolan-2-yl)methoxy]-N-[(1 S,2S)-2-(phenylmethoxy)cyclopentyl]carboxamide] | 1 | 
12 | O=C(NC1CCC1)OC[C@H]1O[C@@H](n2cnc3c(N[C@@H]4CCOC4)ncnc32)[C@H](O)[C@@H]1O [Compound 39 of Example 2, [(5-{6-[((3R)oxolan-3-yl)amino}purin-9-yl}(3S,2R,4R,5R)-3,4-dihydroxyoxolan-2-yl)methoxy]-N-cyclobutylcarboxamide] | 67 | 
13 | O=C(NC1CC1c1ccccc1)OC[C@H]1O[C@@H](n2cnc3c(N[C@@H]4CCOC4)ncnc32)[C@H](O)[C@@H]1O (stereo partly drawn) [Compound 40 of Example 2] | −6 | 
14 | C=CCNC(=O)OC[C@H]1O[C@@H](n2cnc3c(N[C@@H]4CCOC4)ncnc32)[C@H](O)[C@@H]1O [Compound 41 of Example 2, [(5-{6-[((3R)oxolan-3-yl)amino]purin-9-yl}(3S,2R,4R,5R)-3,4-dihydroxyoxolan-2-yl)methoxy]-N-prop-2-enylcarboxamide] | 48 | 
15 | CCOC(=O)CCNC(=O)OC[C@H]1O[C@@H](n2cnc3c(N[C@@H]4CCOC4)ncnc32)[C@H](O)[C@@H]1O [Compound 42 of Example 2, Ethyl 3-{[(5-{6-[((3R)oxolan-3-yl)amino]purin-9-yl}(3S, 2R,4R,5R)-3,4-dihydroxyoxolane-2-yl)methoxy}carbonylamino}propanoate] | 47 | 
16 | CCCCNC(=S)OC[C@H]1O[C@@H](n2cnc3c(N[C@@H]4CCOC4)ncnc32)[C@H](O)[C@@H]1O [Compound 48 of Example 2, 2-{6-[((3R)oxolan-3-yl)amino]purin-9-yl}(4S,2R,3R,5R)-5-{[(butylamino)thioxomethoxy]methyl}oxolane-3,4-diol] | 70 | 

Continued, in another order:

Row | GTPγS [1] [%] | Compound | other results
17 | 53 | COC(=O)CNC(=O)OC[C@H]1O[C@@H](n2cnc3c(N[C@@H]4CCOC4)ncnc32)[C@H](O)[C@@H]1O [Compound 43 of Example 2, Methyl 2-{[(5-{6-[((3R)oxolan-3-yl)amino]purin-9-yl}(3S, 2R,4R,5R)dihydroxyoxolane-2-yl)methoxy}carbonylamino}acetate] | 
18 | 88 | O[C@@H]1[C@H](O)[C@@H](COC(=S)N2CCCCC2)O[C@H]1n1cnc2c(N[C@@H]3CCOC3)ncnc21 [Compound 50 of Example 2, 2-{6-[((3R)oxolan-3-yl)amino]purin-9-yl}(4S,2R,3R,5R)-5-[(piperidylthioxomethoxy)methyl]oxolane-3,4-diol] | 
19 | 77 | O[C@@H]1[C@H](O)[C@@H](COC(=S)N2CCCC2)O[C@H]1n1cnc2c(N[C@@H]3CCOC3)ncnc21 [Compound 52 of Example 2, 2-{6-[((3R)oxolan-3-yl)amino]purin-9-yl}(4S,2R,3R,5R)-5-[(pyrrolidinylthioxomethoxy)methyl]oxolane-3,4-diol] | 
20 | 85 | CN(C)C(=S)OC[C@H]1O[C@@H](n2cnc3c(N[C@@H]4CCOC4)ncnc32)[C@H](O)[C@@H]1O [Compound 53 of Example 2, 2-{6-[((3R)oxolan-3-yl)amino]purin-9-yl}(4S,2R,3R,5R)-5-{[(dimethylamino)thioxomethoxy]methyl}oxolane-3,4-diol] | 
21 | 93 | O[C@@H]1[C@H](O)[C@@H](COC(=S)NCc2ccccc2)O[C@H]1n1cnc2c(N[C@@H]3CCOC3)ncnc21 [Compound 54 of Example 2, 2-{6-[((3R)oxolan-3-yl)amino]purin-9-yl}(4S,2R,3R,5R)-5-({[benzylamino]thioxomethoxy}methyl)oxolane-3,4-diol] | 
22 | 82 | O[C@@H]1[C@H](O)[C@@H](COC(=S)NC2CCCCC2)O[C@H]1n1cnc2c(N[C@@H]3CCOC3)ncnc21 [Compound 55 of Example 2, 2-{6-[((3R)oxolan-3-yl)amino]purin-9-yl}(4S,2R,3R,5R)-5-({[cyclohexylamino]thioxomethoxy}methyl)oxolane-3,4-diol] | 
23 | 52 | O[C@@H]1[C@H](O)[C@@H](COC(=S)N[C@H]2CCC[C@@H]2OCc2ccccc2)O[C@H]1n1cnc2c(N[C@@H]3CCOC3)ncnc21 [Compound 56 of Example 2, 2-{6-[((3R)oxolan-3-yl)amino]purin-9-yl}(4S,2R,3R,5R)-5-[({[(1S,2S)-2-(phenylmethoxy)cyclopentyl]amino}thioxomethoxy)methyl]oxolane-3,4-diol] | 
24 | 67 | O[C@@H]1[C@H](O)[C@@H](COC(=S)N[C@@H]2CCC[C@H]2OCc2ccccc2)O[C@H]1n1cnc2c(N[C@@H]3CCOC3)ncnc21 [Compound 57 of Example 2, 2-{6-[((3R)oxolan-3-yl)amino]purin-9-yl}(4S,2R,3R,5R)-5-[(([(1R,2R)-2-(phenylmethoxy)cyclopentyl]amino}thioxomethoxy)methyl]oxolane-3,4-diol] | 
25 | 79 | O[C@@H]1[C@H](O)[C@@H](COC(=S)NC2CCC2)O[C@H]1n1cnc2c(NC3CCOC3)ncnc21 (stereo partly drawn) [Compound 58 of Example 2, 2-{6-[((3)oxolan-3-yl)amino]purin-9-yl}(4S,2R,3R,5R)-5{[(cyclobutylamino)thioxomethoxy]methyl}oxolane-3,4-diol] | 
26 | 82 | O[C@@H]1[C@H](O)[C@@H](COC(=S)NC2CC2)O[C@H]1n1cnc2c(N[C@@H]3CCOC3)ncnc21 [Compound 59 of Example 2, 2-{6-[((3R)oxolan-3-yl)amino]purin-9-yl}(4S,2R,3R,5R)-5-{[(cyclopropylamino)thioxomethoxy]methyl}oxolane-3,4-diol] | 
27 | 77 | C=CCNC(=S)OC[C@H]1O[C@@H](n2cnc3c(N[C@@H]4CCOC4)ncnc32)[C@H](O)[C@@H]1O [Compound 60 of Example 2, 2-{6-[((3R)oxolan-3-yl)amino]purin-9-yl}(4S,2R,3R,5R)-5-{[(prop-2-enylamino)thioxomethoxy]methyl}oxolane-3,4-diol] | 
28 | 59 | O=C(N[C@H]1CCC[C@@H]1O)OC[C@H]1O[C@@H](n2cnc3c(N[C@@H]4CCOC4)ncnc32)[C@H](O)[C@@H]1O [Compound 61 of Example 2] | 
29 | 42 | O=C(N[C@@H]1CCC[C@H]1O)OC[C@H]1O[C@@H](n2cnc3c(N[C@@H]4CCOC4)ncnc32)[C@H](O)[C@@H]1O [Compound 62 of Example 2, {(5-{6[((3R)oxolan-3-yl)amino]purin-9-yl}(3S,2R,4R,5R)-3,4-dihydroxyoxolan-2-yl)methoxy]-N-((1R,2R)-2-hydroxycyclopentyl)carboxamide] | 
30 | 100 | O[C@@H]1[C@H](O)[C@@H](COC(=S)N[C@@H]2CCC[C@H]2O)O[C@H]1n1cnc2c(N[C@@H]3CCOC3)ncnc21 [Compound 63 of Example 2, 2-{6-[((3R)oxolan-3-yl)amino]purin-9-yl}(4S,2R,3R,5R)-5-({[((1R,2R)-2-hydroxycyclopentyl)amino]thioxomethoxy}methyl)oxolane-3,4-diol] | 
